Experimental data from US20250011330A1, “Imidazo[1,2- a]pyrazine and Imidazo[1,2- a]pyridine Based Tyrosyl-DNA Phosphodiesterase I (TDP1) Inhibitors” (The USA, As Represented by the Secretary, Department of …, priority 2021, published 2025).
Where two headings read alike, the source gives them in different places. Values belong to the compound of their own block, whether it stands above or below them.

How the values were obtained:
TDP1 [1] = target: T1, TDP1 (Homo sapiens (Human), UniProt Q9NUW8); assay: gel-based TDP1 fluorescence assay of unpurified oxime libraries at 100 μM; assay type: biochemical; conditions: 100 μM in DMSO, oximes without purification
T1 sequence (Q9NUW8 whole entry): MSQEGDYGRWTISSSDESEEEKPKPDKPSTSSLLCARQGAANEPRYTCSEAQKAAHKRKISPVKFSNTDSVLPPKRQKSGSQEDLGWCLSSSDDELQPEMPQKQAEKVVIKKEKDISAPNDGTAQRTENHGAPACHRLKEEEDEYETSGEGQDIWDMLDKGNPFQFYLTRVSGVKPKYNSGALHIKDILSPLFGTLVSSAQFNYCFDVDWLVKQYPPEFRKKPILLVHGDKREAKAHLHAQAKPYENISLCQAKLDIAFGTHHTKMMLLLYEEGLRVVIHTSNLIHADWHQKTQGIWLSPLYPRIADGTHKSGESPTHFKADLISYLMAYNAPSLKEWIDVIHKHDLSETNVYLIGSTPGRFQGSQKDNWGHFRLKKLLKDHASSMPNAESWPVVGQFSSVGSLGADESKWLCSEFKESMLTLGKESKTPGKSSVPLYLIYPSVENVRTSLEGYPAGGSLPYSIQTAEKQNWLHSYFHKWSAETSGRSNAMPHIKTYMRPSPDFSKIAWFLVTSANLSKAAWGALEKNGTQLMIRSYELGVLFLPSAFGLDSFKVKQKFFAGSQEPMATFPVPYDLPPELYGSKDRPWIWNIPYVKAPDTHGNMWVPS
Protocol: The oximes were evaluated by gel-based TDP1 fluorescence assay in a concentration of 100 μM in DMSO. The fluorescence of DMSO blank vial was set as 0 and the fluorescence for the reference without TDP1 was set as 100%. Preparation: A mixture of aminooxy-containing 105 or 106 (10 μL, 30 mM in DMSO), aldehydes M1-T12 (10 μL, 30 mM in DMSO) and acetic acid (10 μL, 150 mM in DMSO) were agitated at room temperature overnight. Oximes 5-M1-T12 or 6-M1-T12 (30 uL, 10 mM in DMSO) were afforded.
Two set of oximes 105-X and 106-Y (XZ700-M1-T12, XZ699-M1-T12) ([…], 10 mM in DMSO) were prepared about 240 each starting from aminooxy-containing 105 (XZ700) or 106 (XZ699) based on the following method. A mixture of aminooxy-containing 105 or 106 (10 μL, 30 mM in DMSO) with about 240 aldehydes M1-T12 (10 μL, 30 mM in DMSO) (Table 4) separately in the present of acetic acid (10 μL, 150 mM in DMSO) were agitated at room temperature overnight in three 96-well plates in parallel. The formed oximes 105-M1 to 105-T12 and 106-M1 to 106-T12 (30 uL, 10 mM in DMSO) were diluted to 100 μM in DMSO and evaluated by gel-based TDP1 fluorescence assay. The fluorescence of the gel band of DMSO blank vial was set as 0 and the fluorescence for the reference gel band without TDP1 was set as 100%. […] Among them, with same aldehyde structures D1 and P3, both oximes 105-series (105-D1, 105-P3) and 106-series (106-D1, 106-P3) show great (>90%) TDP1 inhibition. […] To confirm the inhibitions, we have further evaluated the purified lead oximes by HPLC. (Table 7; FIG. 9)

TDP1 [2] = target: T1, TDP1; assay: TDP1 gel-based in vitro fluorescence assay; assay type: biochemical; conditions: for inhibition of TDP1, primary screen: 111 μM, preincubation with TDP1 at room temperature overnight; for selectivity compared with TDP2, secondary screen: preincubation overnight at room temperature; for inhibition, secondary screen: preincubation with TDP overnight at room temperature
[3] = system: human colon cancer cell line HCT116; assay: Synergistic effect with camptothecin (CPT) based on cell viability; conditions: list in description
Protocol: The synergistic effects of the TDP1 inhibitors with CPT were tested in human colon cancer cell line HCT116 based on cell viability (Table 3, FIGS. 2-5). Cells were first seeded in a 384-well black-clear plate until 30% confluency and then incubated with a serial dilution of CPT at the range of 0-100 nM in the present or the absence of TDP1 inhibitors for 72 h at 37° C. Viable cell numbers were counted from the brightfield images taken by Biotek Cytation 5 (FIGS. 2-3). Fractional affect (Fa) and combination index (Ci) were analyzed with CompuSyn software. Synergistic scores of each TDP1 inhibitors were calculated and collected based on the data analysis from SynergyFinder (FIG. 4). […]

TDP2 [4] = target: T2, TDP2 (Homo sapiens (Human), UniProt O95551); assay: gel-based TDP2 fluorescence assay in vitro; assay type: biochemical; conditions: for inhibition of TDP2, primary screen: 111 μM, preincubation with TDP2 at room temperature overnight
T2 sequence (O95551 whole entry, species assumed): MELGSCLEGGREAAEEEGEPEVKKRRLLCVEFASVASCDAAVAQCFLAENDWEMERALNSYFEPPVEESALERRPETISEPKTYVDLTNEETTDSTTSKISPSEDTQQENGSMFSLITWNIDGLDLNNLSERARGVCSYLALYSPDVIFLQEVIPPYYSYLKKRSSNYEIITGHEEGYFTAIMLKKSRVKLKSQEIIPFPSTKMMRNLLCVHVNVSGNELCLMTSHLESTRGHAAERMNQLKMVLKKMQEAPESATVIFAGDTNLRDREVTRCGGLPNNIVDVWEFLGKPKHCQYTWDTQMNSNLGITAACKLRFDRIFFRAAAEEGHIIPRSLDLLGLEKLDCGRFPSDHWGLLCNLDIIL

TDP2 [5] = target: T2, TDP2; assay: TDP2 degrading activity as stated in the description; conditions: list in description
TDP1 [6] = target: T1, TDP1; assay: Degradation assay (western blotting) of TDP1 in HCT116 and HEK293 cells; assay type: cell-based; conditions: for TDP1 degrading activity: list in description
Protocol: The degradation effect of the TDP1 inhibitors on TDP1 in human colon cancer cell line HCT116 and embryonic kidney cell line HEK293 were studied. Cells were first seeded in a 6-well plate until 60-80% confluency and then incubated with a serial dilution of TDP1 inhibitors at the range of 25-200 μM for 24-72 h at 37° C. […] Samples were then sonicated at 30% for 10 s and centrifuged for 15 min at 15000 rpm at 4 Celsius. Supernatant were collected and the concentration of total protein were measured by BCA Protein Assay Kit according to its protocols. Four micrograms of total protein for each sample were loaded and TDP1 level were conducted by western blotting.

TOP1 = TOP1 (Homo sapiens (Human), UniProt P11387); assay: Degradation of TOP1 in cells (western blotting); assay type: cell-based; conditions: list in description
[7] = Table 8, lead compounds with different linkers, read-out: TDP2 IC50
[8] = purified oximes and SMM leads, read-out: TDP1 IC50
[9] = Table 9, fluorosulfates and sulfonyl fluorides, read-out: TDP1 IC50
[10] = Table 9, fluorosulfates and sulfonyl fluorides, read-out: TDP2 IC50

inhibition at 100 µM (TDP1 [1]): > 90%
Compound: N#Cc1ccc(-c2ccc(C=NOCc3ccc4nc(-c5ccccc5)c(Nc5ccc(C(=O)O)cc5)n4c3)cc2)nc1 [Compound 105-D1, 4-((6-((((4-(5-cyanopyridin-2-yl)benzylidene)amino)oxy)methyl)-2-phenylimidazo[1,2-a]pyridin-3-yl)amino)benzoic acid]

inhibition at 100 µM (TDP1 [1]): > 90%
Compound: N#Cc1ccc(-c2ccc(C=NOCc3ccc(-c4nc5cc(-c6ccccc6)ccn5c4Nc4ccc(C(=O)O)cc4)cc3)cc2)nc1 [Compound 106-D1, 4-((2-(4-((((4-(5-cyanopyridin-2-yl)benzylidene)amino)oxy)methyl)phenyl)-7-phenylimidazo[1,2-a]pyridin-3-yl)amino)benzoic acid]

inhibition at 100 µM (TDP1 [1]): > 90%
Compound: Cc1cncc(Oc2ccc(C=NOCc3ccc(-c4nc5cc(-c6ccccc6)ccn5c4Nc4ccc(C(=O)O)cc4)cc3)cc2)n1 [Compound 106-P3, 4-((2-(4-((((4-((6-methylpyrazin-2-yl)oxy)benzylidene)amino)oxy)methyl)phenyl)-7-phenylimidazo[1,2-a]pyridin-3-yl)amino)benzoic acid]

TDP1 inhibition (TDP1 [1]): good inhibition
Compound: O=C(O)c1ccc(Nc2c(-c3ccc(CON=Cc4ccc(N5CCCC5=O)cc4)cc3)nc3cc(-c4ccccc4)ccn23)cc1 [Compound 106-B7, 4-((2-(4-((((4-(2-oxopyrrolidin-1-yl)benzylidene)amino)oxy)methyl)phenyl)-7-phenylimidazo[1,2-a]pyridin-3-yl)amino)benzoic acid]

Compound: N#Cc1ccc(-c2ccc(Cn3cc(-c4ccc(-c5nc6ccccn6c5Nc5ccc(C(=O)O)cc5)cc4)nn3)cc2)nc1 [XZ719, 4-((2-(4-(1-(4-(5-Cyanopyridin-2-yl)benzyl)-1H-1,2,3-triazol-4-yl)phenyl)imidazo[1,2-a]pyridin-3-yl)amino)benzoic acid]
IC50 (TDP1 [2]; Table 8, lead compounds with different linkers, read-out: TDP1 IC50): 21.6 ± 5 µM
FC (fold change) (TDP1 [2]; Table 8, ratio of IC50 TDP2 to TDP1): 3
synergy with camptothecin [3]: exhibit synergy with camptothecin
IC50 (TDP2 [4]; [7]): 62.4 ± 18.6 µM
TDP2 degrading activity (TDP2 [5]): exhibit TDP2 degrading activity

Compound: O=C(O)c1ccc(Nc2c(-c3ccc(CO/N=C/c4ccc(-c5cnccn5)cc4)cc3)nc3cc(-c4ccccc4)ccn23)cc1 [XZ702, (E)-4-((7-Phenyl-2-(4-((((4-(pyrazin-2-yl)benzylidene)amino)oxy)methyl)phenyl)imidazo[1,2-a]pyridin-3-yl)amino)benzoic acid]
FC (fold change) (TDP1 [2]; Table 7, ratio of IC50 TDP2 to TDP1): 3
IC50 (TDP1 [2]; [8]): 3.1 ± 0.5 µM
synergy with camptothecin [3]: exhibit synergy with camptothecin
IC50 (TDP2 [4]; Table 7, HPLC-purified oxime leads, read-out: TDP2 IC50): 8.8 ± 2.9 µM
IC50 (TDP2 [4]; purified oximes, read-out: TDP2 IC50): 8.8 ± 2.9 µM
TDP2 degrading activity (TDP2 [5]): exhibit TDP2 degrading activity

Compound: O=C(O)c1ccc(Nc2c(-c3ccccc3OS(=O)(=O)F)nc3cc(-c4ccccc4)ccn23)cc1 [XZ730, 4-((2-(2-((Fluorosulfonyl)oxy)phenyl)-7-phenylimidazo[1,2-a]pyridin-3-yl)amino)benzoic acid]
TDP1 degradation by covalent inhibitors (TDP1 [6]; FIG. 39): degrade TDP1
TDP1 degrading activity (TDP1 [6]): exhibit TDP1 degrading activity
IC50 (TDP1 [2]): 17.8 µM
inhibition of TDP1, primary screen (TDP1 [2]): inhibition
selectivity compared with TDP2, secondary screen (TDP1 [2]): 2 fold
inhibition, secondary screen (TDP1 [2]): μM inhibition
IC50 (TDP2 [4]): 39.5 µM
inhibition of TDP2, primary screen (TDP2 [4]): inhibition
TDP2 degrading activity (TDP2 [5]): exhibit TDP2 degrading activity

Compound: 4-((2-(4-(2-((4-(5-((λ^2-Azaneylidene)-λ^3-methyl)pyridin-2-yl)phenyl)methoxy)ethyl)phenyl)-7-phenylimidazo[1,2-a]pyridin-3-yl)amino)benzoic acid [XZ726]
TOP1 degrading activity (TOP1): exhibit TOP1 degrading activity
synergy with camptothecin [3]: exhibit synergy with camptothecin
IC50 (TDP2 [4]; [7]): > 100 µM

TOP1 degrading activity (TOP1): exhibit TOP1 degrading activity
TDP1 degrading activity (TDP1 [6]): exhibit TDP1 degrading activity
IC50 (TDP2 [4]; Table 10, PROTACs, read-out: TDP2 IC50): > 100 µM
Compound: Cc1ncsc1-c1ccc(CNC(=O)[C@@H]2C[C@@H](O)CN2C(=O)[C@@H](NC(=O)COCCOCCn2cc(COc3ccc(-c4nc5cc(-c6ccccc6)ccn5c4Nc4ccc(C(=O)O)cc4)cc3)nn2)C(C)(C)C)cc1 [XZ679, 4-((2-(4-((1-(2-(2-(2-(((S)-1-((2S,4R)-4-Hydroxy-2-((4-(4-methylthiazol-5-yl)benzyl)carbamoyl)pyrrolidin-1-yl)-3,3-dimethyl-1-oxobutan-2-yl)amino)-2-oxoethoxy)ethoxy)ethyl)-1H-1,2,3-triazol-4-yl)methoxy)phenyl)-7-phenylimidazo[1,2-a]pyridin-3-yl)amino)benzoic acid]

Compound: O=C(O)c1ccc(N(c2c(-c3ccccc3OS(=O)(=O)F)nc3cc(-c4ccccc4)ccn23)S(=O)(=O)F)cc1 [XZ731, 4-((Fluorosulfonyl)(2-(2-((fluorosulfonyl)oxy)phenyl)-7-phenylimidazo[1,2-a]pyridin-3-yl)amino)benzoic acid]
inhibition of TDP1, primary screen (TDP1 [2]): inhibition
IC50 (TDP1 [2]; [9]): 22.7 µM
selectivity compared with TDP2, secondary screen (TDP1 [2]): 2 fold
inhibition, secondary screen (TDP1 [2]): μM inhibition
inhibition of TDP1, secondary screen (TDP1 [2]; room temperature, preincubation 10 minutes): no inhibition
inhibition of TDP2, primary screen (TDP2 [4]): inhibition
IC50 (TDP2 [4]; [10]): 45.5 µM
TDP2 degrading activity (TDP2 [5]): exhibit TDP2 degrading activity

TDP1 inhibition (TDP1 [1]): good inhibition
Compound: O=C(O)c1ccc(Nc2c(-c3ccc(CON=Cc4ccc(-c5cnccn5)cc4)cc3)nc3cc(-c4ccccc4)ccn23)cc1 [Compound 106-E6, 4-((7-phenyl-2-(4-((((4-(pyrazin-2-yl)benzylidene)amino)oxy)methyl)phenyl)imidazo[1,2-a]pyridin-3-yl)amino)benzoic acid]

inhibition at 100 µM (TDP1 [1]): > 90%
IC50 (TDP1 [2]; [8]): > 100 µM
Compound: Cc1cncc(Oc2ccc(C=NOCc3ccc4nc(-c5ccccc5)c(Nc5ccc(C(=O)O)cc5)n4c3)cc2)n1 [Compound 105-P3, 4-((6-((((4-((6-methylpyrazin-2-yl)oxy)benzylidene)amino)oxy)methyl)-2-phenylimidazo[1,2-a]pyridin-3-yl)amino)benzoic acid]

Compound: O=C(O)c1ccc(Nc2c(-c3ccccc3)nc3ccc(OS(=O)(=O)F)cn23)cc1 [XZ732, 4-((6-((Fluorosulfonyl)oxy)-2-phenylimidazo[1,2-a]pyridin-3-VA)amino)benzoic acid]
IC50 (TDP1 [2]; [9]): > 100 µM
inhibition of TDP2, primary screen (TDP2 [4]): inhibition
IC50 (TDP2 [4]; [10]): 65.8 µM
TDP2 degrading activity (TDP2 [5]): exhibit TDP2 degrading activity

TDP1 inhibition (TDP1 [1]): poor inhibition
Compound: O=C(O)c1ccc(Nc2c(-c3ccc(CON=Cc4ccc(-c5ccccc5)cc4)cc3)nc3cc(-c4ccccc4)ccn23)cc1 [Compound 106-M10, 4-((2-(4-(((([1,1′-biphenyl]-4-ylmethylene)amino)oxy)methyl)phenyl)-7-phenylimidazo[1,2-a]pyridin-3-yl)amino)benzoic acid]
